Assay results published in ChEMBL document CHEMBL3991601, “The target landscape of clinical kinase drugs” (Science, 2017).
The source made the active and inactive calls. For most assays here, no stated cut-off is given here; in the data, actives have a measured Kd and inactives only a lower limit.

Key:
[1] = target: Tyrosine-protein kinase ABL1 (Homo sapiens, UniProt P00519)
[2] = target: Serine/threonine-protein kinase MRCK alpha (Homo sapiens, UniProt Q5VT25)
Glycine--tRNA ligase = target: T1, Glycine--tRNA ligase (Homo sapiens, UniProt P41250)
T1 sequence (P41250 whole entry): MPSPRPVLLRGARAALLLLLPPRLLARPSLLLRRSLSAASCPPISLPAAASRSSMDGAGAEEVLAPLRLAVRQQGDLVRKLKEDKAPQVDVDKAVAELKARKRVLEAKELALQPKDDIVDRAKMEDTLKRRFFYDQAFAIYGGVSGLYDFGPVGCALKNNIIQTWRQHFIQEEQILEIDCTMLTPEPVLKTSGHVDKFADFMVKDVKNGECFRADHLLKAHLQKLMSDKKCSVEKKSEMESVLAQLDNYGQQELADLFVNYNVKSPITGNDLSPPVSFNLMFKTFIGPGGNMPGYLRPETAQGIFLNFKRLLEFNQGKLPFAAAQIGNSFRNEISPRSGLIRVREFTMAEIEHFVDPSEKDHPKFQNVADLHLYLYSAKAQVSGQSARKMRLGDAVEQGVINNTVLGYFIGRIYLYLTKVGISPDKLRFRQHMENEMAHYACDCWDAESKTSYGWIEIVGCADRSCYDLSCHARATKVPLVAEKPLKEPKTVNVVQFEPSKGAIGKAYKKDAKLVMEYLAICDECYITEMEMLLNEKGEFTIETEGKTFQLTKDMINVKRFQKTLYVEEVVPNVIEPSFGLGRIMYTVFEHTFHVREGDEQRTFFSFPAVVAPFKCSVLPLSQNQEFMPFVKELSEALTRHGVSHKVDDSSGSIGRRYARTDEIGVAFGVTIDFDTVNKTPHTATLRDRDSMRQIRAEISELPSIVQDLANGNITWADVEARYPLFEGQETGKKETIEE

Scaffold protein ILK = target: T2, Scaffold protein ILK (Homo sapiens, UniProt Q13418)
T2 sequence (Q13418 whole entry): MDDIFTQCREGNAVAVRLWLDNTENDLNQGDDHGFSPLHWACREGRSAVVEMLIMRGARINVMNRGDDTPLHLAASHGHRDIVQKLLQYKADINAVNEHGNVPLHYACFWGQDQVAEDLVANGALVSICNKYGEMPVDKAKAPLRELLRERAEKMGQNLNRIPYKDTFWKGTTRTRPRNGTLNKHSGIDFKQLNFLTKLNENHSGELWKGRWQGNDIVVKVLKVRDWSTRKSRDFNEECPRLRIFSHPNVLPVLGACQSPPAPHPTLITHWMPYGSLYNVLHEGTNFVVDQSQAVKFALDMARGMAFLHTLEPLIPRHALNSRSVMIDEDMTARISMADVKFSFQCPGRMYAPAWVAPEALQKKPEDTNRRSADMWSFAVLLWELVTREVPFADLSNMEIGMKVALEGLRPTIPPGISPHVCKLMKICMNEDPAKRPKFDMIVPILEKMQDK

[3] = target: T3, Mitogen-activated protein kinase 15 (Homo sapiens, UniProt Q8TD08)
T3 sequence (Q8TD08 whole entry): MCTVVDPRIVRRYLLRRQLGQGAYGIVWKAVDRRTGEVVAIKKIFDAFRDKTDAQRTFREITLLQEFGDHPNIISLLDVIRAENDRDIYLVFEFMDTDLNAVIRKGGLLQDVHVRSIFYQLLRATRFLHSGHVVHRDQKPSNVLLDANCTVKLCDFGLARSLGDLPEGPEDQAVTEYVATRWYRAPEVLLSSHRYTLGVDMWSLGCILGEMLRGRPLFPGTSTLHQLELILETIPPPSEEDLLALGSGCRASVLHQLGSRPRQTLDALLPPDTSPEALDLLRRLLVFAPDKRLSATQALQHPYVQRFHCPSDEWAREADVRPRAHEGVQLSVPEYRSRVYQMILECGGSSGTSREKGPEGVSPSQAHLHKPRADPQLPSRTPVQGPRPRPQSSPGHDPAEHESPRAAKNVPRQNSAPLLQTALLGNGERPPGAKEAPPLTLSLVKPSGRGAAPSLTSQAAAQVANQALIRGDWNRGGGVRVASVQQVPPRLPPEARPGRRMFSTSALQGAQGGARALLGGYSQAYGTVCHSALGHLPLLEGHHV

[4] = target: Mitogen-activated protein kinase 9 (Homo sapiens, UniProt P45984)
[5] = target: Macrophage-stimulating protein receptor (Homo sapiens, UniProt Q04912)
[6] = target: T4, Membrane-associated tyrosine- and threonine-specific cdc2-inhibitory kinase (Homo sapiens, UniProt Q99640)
T4 sequence (Q99640 whole entry): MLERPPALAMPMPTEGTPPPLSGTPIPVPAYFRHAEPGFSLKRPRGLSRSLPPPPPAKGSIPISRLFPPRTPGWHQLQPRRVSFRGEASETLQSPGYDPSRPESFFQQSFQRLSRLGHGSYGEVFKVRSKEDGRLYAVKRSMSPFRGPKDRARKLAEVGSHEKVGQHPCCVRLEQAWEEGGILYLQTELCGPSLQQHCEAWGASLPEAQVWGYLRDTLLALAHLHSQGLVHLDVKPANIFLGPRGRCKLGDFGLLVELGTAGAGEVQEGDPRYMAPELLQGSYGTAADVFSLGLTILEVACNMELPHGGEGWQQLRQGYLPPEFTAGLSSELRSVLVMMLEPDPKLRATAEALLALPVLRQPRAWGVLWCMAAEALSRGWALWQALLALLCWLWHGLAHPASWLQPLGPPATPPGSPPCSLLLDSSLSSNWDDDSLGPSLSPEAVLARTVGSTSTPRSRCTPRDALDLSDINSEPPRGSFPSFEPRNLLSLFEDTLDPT

[7] = target: T5, EKC/KEOPS complex subunit TP53RK (Homo sapiens, UniProt Q96S44)
T5 sequence (Q96S44 whole entry): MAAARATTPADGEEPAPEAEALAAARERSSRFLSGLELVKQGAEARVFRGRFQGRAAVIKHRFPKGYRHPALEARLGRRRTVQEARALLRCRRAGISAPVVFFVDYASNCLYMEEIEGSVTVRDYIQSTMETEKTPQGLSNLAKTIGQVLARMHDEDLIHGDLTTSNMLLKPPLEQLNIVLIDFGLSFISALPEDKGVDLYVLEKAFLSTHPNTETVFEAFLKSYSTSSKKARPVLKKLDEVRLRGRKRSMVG

Macrophage-stimulating protein receptor, sequence (Q04912 25-304 limits assumed): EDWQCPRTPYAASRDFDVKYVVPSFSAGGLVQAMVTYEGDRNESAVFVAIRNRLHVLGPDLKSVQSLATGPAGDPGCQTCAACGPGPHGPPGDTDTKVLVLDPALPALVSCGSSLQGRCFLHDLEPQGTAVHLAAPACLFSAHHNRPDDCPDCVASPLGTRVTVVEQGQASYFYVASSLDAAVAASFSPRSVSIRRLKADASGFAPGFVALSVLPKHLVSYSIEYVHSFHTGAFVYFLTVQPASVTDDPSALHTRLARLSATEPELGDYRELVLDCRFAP
Macrophage-stimulating protein receptor, sequence (Q04912 310-1400 limits assumed): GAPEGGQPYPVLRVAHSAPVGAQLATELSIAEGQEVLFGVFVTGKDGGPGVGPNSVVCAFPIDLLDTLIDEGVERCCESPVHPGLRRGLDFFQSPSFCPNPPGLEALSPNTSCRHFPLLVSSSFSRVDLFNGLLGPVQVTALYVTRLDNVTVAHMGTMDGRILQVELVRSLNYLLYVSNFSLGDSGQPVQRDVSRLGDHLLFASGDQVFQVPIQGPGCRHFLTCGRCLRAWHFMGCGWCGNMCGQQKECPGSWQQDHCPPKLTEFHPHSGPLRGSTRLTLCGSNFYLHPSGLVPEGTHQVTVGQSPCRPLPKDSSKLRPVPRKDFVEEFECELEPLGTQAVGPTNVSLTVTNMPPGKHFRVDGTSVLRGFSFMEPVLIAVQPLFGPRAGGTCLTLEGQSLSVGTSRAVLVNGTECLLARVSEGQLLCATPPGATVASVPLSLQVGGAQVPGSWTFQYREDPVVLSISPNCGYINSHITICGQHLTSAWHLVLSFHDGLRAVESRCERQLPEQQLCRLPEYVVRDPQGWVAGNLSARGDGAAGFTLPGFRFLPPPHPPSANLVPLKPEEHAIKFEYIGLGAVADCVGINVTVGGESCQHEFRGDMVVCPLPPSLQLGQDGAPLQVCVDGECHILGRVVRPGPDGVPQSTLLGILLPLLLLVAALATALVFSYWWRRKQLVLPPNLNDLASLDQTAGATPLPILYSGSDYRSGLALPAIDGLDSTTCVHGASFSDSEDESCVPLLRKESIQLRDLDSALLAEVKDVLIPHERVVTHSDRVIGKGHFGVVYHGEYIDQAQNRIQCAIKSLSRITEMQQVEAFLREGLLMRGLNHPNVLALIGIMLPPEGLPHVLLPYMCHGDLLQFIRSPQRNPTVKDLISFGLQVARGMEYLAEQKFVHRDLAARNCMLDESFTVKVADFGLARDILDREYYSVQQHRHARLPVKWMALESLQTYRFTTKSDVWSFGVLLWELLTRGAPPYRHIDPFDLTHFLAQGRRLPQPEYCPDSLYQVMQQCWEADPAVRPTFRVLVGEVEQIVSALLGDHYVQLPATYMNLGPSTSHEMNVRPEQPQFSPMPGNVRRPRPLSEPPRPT
Mitogen-activated protein kinase 9, sequence (P45984 whole entry): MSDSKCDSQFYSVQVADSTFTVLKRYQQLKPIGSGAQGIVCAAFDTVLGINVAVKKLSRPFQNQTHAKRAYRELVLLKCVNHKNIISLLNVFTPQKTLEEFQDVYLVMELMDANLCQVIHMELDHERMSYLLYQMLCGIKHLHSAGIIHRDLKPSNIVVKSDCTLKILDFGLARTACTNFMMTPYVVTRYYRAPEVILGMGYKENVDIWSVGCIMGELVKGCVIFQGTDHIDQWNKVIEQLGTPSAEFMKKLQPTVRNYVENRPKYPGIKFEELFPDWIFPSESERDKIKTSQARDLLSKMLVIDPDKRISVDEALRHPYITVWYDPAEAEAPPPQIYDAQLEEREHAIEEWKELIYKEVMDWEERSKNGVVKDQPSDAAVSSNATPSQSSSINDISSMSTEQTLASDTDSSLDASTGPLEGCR
Serine/threonine-protein kinase MRCK alpha, sequence (Q5VT25 whole entry): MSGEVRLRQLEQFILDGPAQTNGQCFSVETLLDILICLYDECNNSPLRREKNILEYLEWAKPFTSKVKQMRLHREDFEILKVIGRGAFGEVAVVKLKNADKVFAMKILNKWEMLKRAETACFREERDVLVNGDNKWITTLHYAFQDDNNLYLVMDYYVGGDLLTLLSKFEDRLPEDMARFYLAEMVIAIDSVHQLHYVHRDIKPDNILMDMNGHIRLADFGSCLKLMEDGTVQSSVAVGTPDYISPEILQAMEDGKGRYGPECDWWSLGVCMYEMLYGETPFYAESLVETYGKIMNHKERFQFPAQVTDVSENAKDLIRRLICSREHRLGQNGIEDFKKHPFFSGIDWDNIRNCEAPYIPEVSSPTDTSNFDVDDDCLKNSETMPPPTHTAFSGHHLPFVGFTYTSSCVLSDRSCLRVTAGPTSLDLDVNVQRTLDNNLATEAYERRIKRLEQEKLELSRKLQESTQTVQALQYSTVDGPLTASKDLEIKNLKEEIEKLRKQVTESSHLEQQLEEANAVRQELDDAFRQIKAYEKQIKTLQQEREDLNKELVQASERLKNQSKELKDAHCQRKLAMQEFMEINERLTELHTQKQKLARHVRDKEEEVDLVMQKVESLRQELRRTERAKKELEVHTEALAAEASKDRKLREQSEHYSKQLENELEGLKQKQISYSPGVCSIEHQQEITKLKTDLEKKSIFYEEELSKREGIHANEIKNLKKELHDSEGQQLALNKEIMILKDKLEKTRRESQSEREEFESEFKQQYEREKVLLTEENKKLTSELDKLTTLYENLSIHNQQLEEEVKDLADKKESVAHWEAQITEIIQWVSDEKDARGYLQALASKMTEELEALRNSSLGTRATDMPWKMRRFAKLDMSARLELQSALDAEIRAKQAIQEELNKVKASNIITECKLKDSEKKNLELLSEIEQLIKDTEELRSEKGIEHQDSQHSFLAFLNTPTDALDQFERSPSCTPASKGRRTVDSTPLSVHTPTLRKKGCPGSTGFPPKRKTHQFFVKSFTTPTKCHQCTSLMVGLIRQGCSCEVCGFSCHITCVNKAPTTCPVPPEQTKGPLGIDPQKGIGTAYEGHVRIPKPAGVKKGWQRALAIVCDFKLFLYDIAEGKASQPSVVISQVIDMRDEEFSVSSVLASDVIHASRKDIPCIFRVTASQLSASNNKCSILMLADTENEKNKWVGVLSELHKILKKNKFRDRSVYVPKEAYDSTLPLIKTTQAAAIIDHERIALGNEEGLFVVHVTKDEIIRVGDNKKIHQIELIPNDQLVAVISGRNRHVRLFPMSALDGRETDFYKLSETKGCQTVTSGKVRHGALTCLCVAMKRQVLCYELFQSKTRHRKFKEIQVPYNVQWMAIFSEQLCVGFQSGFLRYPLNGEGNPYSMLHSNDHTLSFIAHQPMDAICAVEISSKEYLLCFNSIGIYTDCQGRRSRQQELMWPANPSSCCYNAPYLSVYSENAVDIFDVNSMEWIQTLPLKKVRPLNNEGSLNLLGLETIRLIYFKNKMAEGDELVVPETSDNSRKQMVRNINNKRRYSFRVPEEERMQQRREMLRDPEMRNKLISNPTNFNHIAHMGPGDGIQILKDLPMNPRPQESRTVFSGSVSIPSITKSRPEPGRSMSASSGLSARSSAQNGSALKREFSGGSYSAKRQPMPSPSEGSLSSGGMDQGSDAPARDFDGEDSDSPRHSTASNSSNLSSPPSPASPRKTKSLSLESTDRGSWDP
Tyrosine-protein kinase ABL1, sequence (P00519 whole entry): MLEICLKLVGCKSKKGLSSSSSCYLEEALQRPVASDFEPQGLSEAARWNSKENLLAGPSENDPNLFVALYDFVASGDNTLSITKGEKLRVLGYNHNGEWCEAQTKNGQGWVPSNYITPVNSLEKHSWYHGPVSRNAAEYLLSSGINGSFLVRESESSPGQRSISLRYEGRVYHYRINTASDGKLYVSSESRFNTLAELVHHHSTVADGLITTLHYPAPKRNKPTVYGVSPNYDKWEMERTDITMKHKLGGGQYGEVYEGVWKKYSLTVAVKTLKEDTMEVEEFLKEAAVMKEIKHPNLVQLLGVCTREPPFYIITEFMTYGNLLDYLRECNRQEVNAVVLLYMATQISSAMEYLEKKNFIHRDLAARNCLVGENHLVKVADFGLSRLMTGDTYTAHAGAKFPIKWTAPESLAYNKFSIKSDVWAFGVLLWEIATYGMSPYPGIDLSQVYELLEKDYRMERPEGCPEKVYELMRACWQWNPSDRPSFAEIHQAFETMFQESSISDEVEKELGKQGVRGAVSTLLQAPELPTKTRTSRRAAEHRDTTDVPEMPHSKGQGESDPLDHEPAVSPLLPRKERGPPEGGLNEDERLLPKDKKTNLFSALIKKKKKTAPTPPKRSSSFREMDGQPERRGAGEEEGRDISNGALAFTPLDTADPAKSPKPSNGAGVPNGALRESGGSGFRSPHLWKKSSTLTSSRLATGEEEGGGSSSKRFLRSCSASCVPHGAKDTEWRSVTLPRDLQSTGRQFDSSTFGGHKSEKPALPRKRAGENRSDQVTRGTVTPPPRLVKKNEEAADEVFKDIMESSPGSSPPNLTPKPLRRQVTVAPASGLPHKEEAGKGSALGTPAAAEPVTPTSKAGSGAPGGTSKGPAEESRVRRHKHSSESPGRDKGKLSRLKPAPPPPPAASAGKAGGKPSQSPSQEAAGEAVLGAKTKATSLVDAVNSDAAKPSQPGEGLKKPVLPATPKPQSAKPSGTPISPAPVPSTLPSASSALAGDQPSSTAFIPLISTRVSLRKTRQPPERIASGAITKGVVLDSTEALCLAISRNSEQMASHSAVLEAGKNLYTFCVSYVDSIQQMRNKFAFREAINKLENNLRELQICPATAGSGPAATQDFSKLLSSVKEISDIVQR

SMILES	Kd [1]	Kd [2]	Kd (Glycine--tRNA ligase)	Kd (Scaffold protein ILK)	Kd [4]	Kd [5]	Kd [6]	Kd [7]	Kd [3]
N[C@@H]1CCCN(c2c(/C=C3\SC(=O)NC3=O)cccc2-c2ccccc2)C1	> 30 µM (inactive)	> 30 µM (inactive)	> 30 µM (inactive)	> 30 µM (inactive)	> 30 µM (inactive)	> 30 µM (inactive)	> 30 µM (inactive)	> 30 µM (inactive)	> 30 µM (inactive)
CN1CC[C@@H](c2c(O)cc(O)c3c(=O)cc(-c4ccccc4Cl)oc23)[C@@H]1CO	> 30 µM (inactive)	> 30 µM (inactive)	> 30 µM (inactive)	> 30 µM (inactive)	> 30 µM (inactive)	> 30 µM (inactive)	> 30 µM (inactive)	> 30 µM (inactive)	> 30 µM (inactive)
CCN1CCN(Cc2ccc(-c3cc4c(N[C@H](C)c5ccccc5)ncnc4[nH]3)cc2)CC1 [AEE-788]	1.09 µM (active)	> 30 µM (inactive)	> 30 µM (inactive)	> 30 µM (inactive)	> 30 µM (inactive)	> 30 µM (inactive)	> 30 µM (inactive)	> 30 µM (inactive)	> 30 µM (inactive)
Cn1ncc(Cl)c1-c1cc(C(=O)N[C@H](CN)Cc2cccc(F)c2)sc1Cl [AFURESERTIB]	> 30 µM (inactive)	> 30 µM (inactive)	> 30 µM (inactive)	> 30 µM (inactive)	> 30 µM (inactive)	> 30 µM (inactive)	> 30 µM (inactive)	> 30 µM (inactive)	> 30 µM (inactive)
CNS(=O)(=O)Nc1nccc(Cc2c(C)c3ccc(Oc4ncccn4)cc3oc2=O)c1F [AVUTOMETINIB]	> 30 µM (inactive)	> 30 µM (inactive)	> 30 µM (inactive)	> 30 µM (inactive)	> 30 µM (inactive)	> 30 µM (inactive)	> 30 µM (inactive)	> 30 µM (inactive)	> 30 µM (inactive)
Cc1ccc(NC(=O)c2ccc(CN3CC[C@H](N(C)C)C3)c(C(F)(F)F)c2)cc1Nc1nccc(-c2cncnc2)n1 [BAFETINIB]	0.026 µM (active)	> 30 µM (inactive)	> 30 µM (inactive)	> 30 µM (inactive)	> 30 µM (inactive)	> 30 µM (inactive)	> 30 µM (inactive)	> 30 µM (inactive)	> 30 µM (inactive)
CCS(=O)(=O)N1CC(CC#N)(n2cc(-c3ncnc4[nH]ccc34)cn2)C1 [BARICITINIB]	> 30 µM (inactive)	> 30 µM (inactive)	> 30 µM (inactive)	> 30 µM (inactive)	> 30 µM (inactive)	> 30 µM (inactive)	> 30 µM (inactive)	> 30 µM (inactive)	> 30 µM (inactive)
Cc1cc2c(F)c(Oc3ncnn4cc(OC[C@@H](C)OC(=O)[C@H](C)N)c(C)c34)ccc2[nH]1 [BRIVANIB ALANINATE]	> 30 µM (inactive)	> 30 µM (inactive)	> 30 µM (inactive)	> 30 µM (inactive)	> 30 µM (inactive)	> 30 µM (inactive)	> 30 µM (inactive)	> 30 µM (inactive)	> 30 µM (inactive)
CNC(=O)c1ccc(-c2cnc3ncc(Cc4ccc5ncccc5c4)n3n2)cc1F [CAPMATINIB]	> 30 µM (inactive)	> 30 µM (inactive)	> 30 µM (inactive)	> 30 µM (inactive)	> 30 µM (inactive)	> 30 µM (inactive)	> 30 µM (inactive)	> 30 µM (inactive)	> 30 µM (inactive)
O=C(c1ccc(F)c(F)c1Nc1ccc(I)cc1F)N1CC(O)([C@@H]2CCCCN2)C1 [COBIMETINIB]	> 30 µM (inactive)	> 30 µM (inactive)	> 30 µM (inactive)	> 30 µM (inactive)	> 30 µM (inactive)	> 30 µM (inactive)	> 30 µM (inactive)	> 30 µM (inactive)	> 30 µM (inactive)

Further lines, with some results ahead:

Kd [1]	Kd [2]	Kd (Glycine--tRNA ligase)	Kd (Scaffold protein ILK)	Kd [4]	Kd [5]	Kd [6]	Kd [7]	SMILES	Kd [3]
5.26 µM (active)	> 30 µM (inactive)	> 30 µM (inactive)	> 30 µM (inactive)	> 30 µM (inactive)	> 30 µM (inactive)	> 30 µM (inactive)	> 30 µM (inactive)	COc1cc(N2CCC(N3CCN(C)CC3)CC2)ccc1Nc1ncnc(Nc2ccccc2S(=O)(=O)C(C)C)n1 [ASP-3026]	> 30 µM (inactive)
> 30 µM (inactive)	> 30 µM (inactive)	> 30 µM (inactive)	> 30 µM (inactive)	> 30 µM (inactive)	> 30 µM (inactive)	> 30 µM (inactive)	> 30 µM (inactive)	COc1cc(CCc2cc(NC(=O)c3ccc(N4C[C@@H](C)N[C@@H](C)C4)cc3)n[nH]2)cc(OC)c1 [AZD-4547]	> 30 µM (inactive)
> 30 µM (inactive)	> 30 µM (inactive)	> 30 µM (inactive)	> 30 µM (inactive)	> 30 µM (inactive)	> 30 µM (inactive)	> 30 µM (inactive)	> 30 µM (inactive)	Cc1cc([C@@H](C)Nc2ccccc2C(=O)O)c2nc(N3CCOCC3)cc(=O)n2c1 [AZD-6482]	> 30 µM (inactive)
> 30 µM (inactive)	> 30 µM (inactive)	> 30 µM (inactive)	> 30 µM (inactive)	> 30 µM (inactive)	> 30 µM (inactive)	> 30 µM (inactive)	> 30 µM (inactive)	COc1ccc(-c2ccc3c(N4CCOC[C@@H]4C)nc(N4CCOC[C@@H]4C)nc3n2)cc1CO [AZD-8055]	> 30 µM (inactive)
> 30 µM (inactive)	> 30 µM (inactive)	> 30 µM (inactive)	> 30 µM (inactive)	> 30 µM (inactive)	> 30 µM (inactive)	> 30 µM (inactive)	> 30 µM (inactive)	C[C@@H](Nc1cc(F)cc(F)c1)c1cc(C(=O)N(C)C)cc2c(=O)cc(N3CCOCC3)oc12 [AZD-8186]	> 30 µM (inactive)
